{"source": "patent US20100267561A1", "about": "“HERBICIDAL PYRIDAZINONE DERIVATIVES” (priority 2007, published 2010)", "assay_in_all_cases": "Test B pre-/postemergence plant response", "assay_type_in_all_cases": "in vivo", "key": {"[1]": {"system": "corn (Zea mays)", "in_short": "(§1)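 Visual scoring from 0 (no effect) to 100 (complete control) against untreated controls was done 13 to 15 days after greenhouse treatment. Chemicals were formulated in a surfactant-containing non-phytotoxic solvent and applied to soil preemergence or to 1- to 4-leaf (2-18 cm) plants postemergence.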"}, "[2]": {"system": "green foxtail (Setaria viridis)", "in_short": "as §1"}, "[3]": {"system": "giant foxtail (Setaria faberii)", "in_short": "as §1"}, "[4]": {"system": "surinam grass (Brachiaria decumbens)", "in_short": "as §1"}, "[5]": {"system": "wild oat (Avena fatua)", "in_short": "as §1"}, "[6]": {"system": "woolly cupgrass (Eriochloa villosa)", "in_short": "as §1"}, "[7]": {"system": "catchweed bedstraw (Galium aparine)", "conditions": "Preemergence", "in_short": "as §1"}, "[8]": {"system": "lambsquarters (Chenopodium album)", "in_short": "as §1"}, "[9]": {"system": "downy bromegrass (Bromus tectorum)", "in_short": "as §1"}, "[10]": {"system": "blackgrass (Alopecurus myosuroides)", "in_short": "as §1"}, "[11]": {"system": "goosegrass (Eleusine indica)", "in_short": "as §1"}, "[12]": {"system": "pigweed (Amaranthus retroflexus)", "in_short": "as §1"}, "[13]": {"system": "morningglory (Ipomoea coccinea)", "in_short": "as §1"}, "[14]": {"system": "common ragweed (Ambrosia elation)", "in_short": "as §1"}, "[15]": {"conditions": "8 g ai/ha, postemergence, 0-100 scale"}, "[16]": {"conditions": "16 g ai/ha, postemergence, 0-100 scale"}, "[17]": {"conditions": "Postemergence, 31 g ai/ha, scale 0 to 100"}, "[18]": {"conditions": "Postemergence, 62 g ai/ha, scale 0 to 100, 0 no effect, 100 complete control"}, "[19]": {"conditions": "Preemergence, 8 g ai/ha, scale 0 to 100 (0 no effect, 100 complete control)"}, "[20]": {"conditions": "Preemergence, 31 g ai/ha, scale 0 to 100 (0 no effect, 100 complete control)"}, "[21]": {"conditions": "Preemergence, 62 g ai/ha, 0 to 100 scale, 0 no effect, 100 complete control"}, "[22]": {"conditions": "Preemergence, 16 g ai/ha, scale 0 to 100"}}}
{"smiles": "CCc1c(C)c(-c2ccc(Br)cc2)nn1-c1c(O)cnn(C)c1=O", "note": "[Compound 83]", "values": [{"measurement": "Corn plant response rating", "setting": "[1]; [15]", "result": 65}, {"measurement": "Corn plant response rating", "setting": "[1]; [16]", "result": 95}, {"measurement": "Plant response rating, Corn", "setting": "[1]; [17]", "result": 98}, {"measurement": "Plant response rating, Corn", "setting": "[1]; [18]", "result": 100}, {"measurement": "Corn plant response rating", "setting": "[1]; [19]", "result": 0}, {"measurement": "Plant response rating, Corn", "setting": "[1]; [20]", "result": 95}, {"measurement": "Plant response rating, Corn", "setting": "[1]; [21]", "result": 95}, {"measurement": "Corn plant response rating", "setting": "[1]; [22]", "result": 45}, {"measurement": "Foxtail, Green plant response rating", "setting": "[2]; [15]", "result": 60}, {"measurement": "Foxtail, Green plant response rating", "setting": "[2]; [16]", "result": 65}, {"measurement": "Plant response rating, Foxtail, Green", "setting": "[2]; [17]", "result": 98}, {"measurement": "Plant response rating, Foxtail, Green", "setting": "[2]; [18]", "result": 100}, {"measurement": "Foxtail, Green plant response rating", "setting": "[2]; [19]", "result": 40}, {"measurement": "Plant response rating, Foxtail, Green", "setting": "[2]; [20]", "result": 80}, {"measurement": "Plant response rating, Foxtail, Green", "setting": "[2]; [21]", "result": 100}, {"measurement": "Foxtail, Green plant response rating", "setting": "[2]; [22]", "result": 70}, {"measurement": "Foxtail, Giant plant response rating", "setting": "[3]; [15]", "result": 80}, {"measurement": "Foxtail, Giant plant response rating", "setting": "[3]; [16]", "result": 90}, {"measurement": "Plant response rating, Foxtail, Giant", "setting": "[3]; [17]", "result": 100}, {"measurement": "Plant response rating, Foxtail, Giant", "setting": "[3]; [18]", "result": 100}, {"measurement": "Foxtail, Giant plant response rating", "setting": "[3]; [19]", "result": 80}, {"measurement": "Plant response rating, Foxtail, Giant", "setting": "[3]; [20]", "result": 100}, {"measurement": "Plant response rating, Foxtail, Giant", "setting": "[3]; [21]", "result": 100}, {"measurement": "Foxtail, Giant plant response rating", "setting": "[3]; [22]", "result": 100}, {"measurement": "Surinam Grass plant response rating", "setting": "[4]; [15]", "result": 85}, {"measurement": "Surinam Grass plant response rating", "setting": "[4]; [16]", "result": 100}, {"measurement": "Plant response rating, Surinam Grass", "setting": "[4]; [17]", "result": 100}, {"measurement": "Plant response rating, Surinam Grass", "setting": "[4]; [18]", "result": 100}, {"measurement": "Surinam Grass plant response rating", "setting": "[4]; [19]", "result": 55}, {"measurement": "Plant response rating, Surinam Grass", "setting": "[4]; [20]", "result": 98}, {"measurement": "Plant response rating, Surinam Grass", "setting": "[4]; [21]", "result": 100}, {"measurement": "Surinam Grass plant response rating", "setting": "[4]; [22]", "result": 90}, {"measurement": "Oat, Wild plant response rating", "setting": "[5]; [15]", "result": 98}, {"measurement": "Oat, Wild plant response rating", "setting": "[5]; [16]", "result": 100}, {"measurement": "Plant response rating, Oat, Wild", "setting": "[5]; [17]", "result": 100}, {"measurement": "Plant response rating, Oat, Wild", "setting": "[5]; [18]", "result": 100}, {"measurement": "Oat, Wild plant response rating", "setting": "[5]; [19]", "result": 0}, {"measurement": "Plant response rating, Oat, Wild", "setting": "[5]; [20]", "result": 80}, {"measurement": "Plant response rating, Oat, Wild", "setting": "[5]; [21]", "result": 85}, {"measurement": "Oat, Wild plant response rating", "setting": "[5]; [22]", "result": 30}, {"measurement": "Cupgrass, Woolly plant response rating", "setting": "[6]; [15]", "result": 65}, {"measurement": "Cupgrass, Woolly plant response rating", "setting": "[6]; [16]", "result": 95}, {"measurement": "Plant response rating, Cupgrass, Woolly", "setting": "[6]; [17]", "result": 98}, {"measurement": "Plant response rating, Cupgrass, Woolly", "setting": "[6]; [18]", "result": 100}, {"measurement": "Cupgrass, Woolly plant response rating", "setting": "[6]; [19]", "result": 65}, {"measurement": "Plant response rating, Cupgrass, Woolly", "setting": "[6]; [20]", "result": 100}, {"measurement": "Plant response rating, Cupgrass, Woolly", "setting": "[6]; [21]", "result": 100}, {"measurement": "Cupgrass, Woolly plant response rating", "setting": "[6]; [22]", "result": 90}, {"measurement": "Galium plant response rating", "setting": "[7]; 8 g ai/ha, scale 0 to 100 (0 no effect, 100 complete control)", "result": 0}, {"measurement": "Plant response rating, Galium", "setting": "[7]; 31 g ai/ha, scale 0 to 100 (0 no effect, 100 complete control)", "result": 0}, {"measurement": "Plant response rating, Galium", "setting": "[7]; 62 g ai/ha, 0 to 100 scale, 0 no effect, 100 complete control", "result": 0}, {"measurement": "Galium plant response rating", "setting": "[7]; 16 g ai/ha, scale 0 to 100", "result": 0}, {"measurement": "Lambsquarters plant response rating", "setting": "[8]; [15]", "result": 0}, {"measurement": "Lambsquarters plant response rating", "setting": "[8]; [16]", "result": 0}, {"measurement": "Plant response rating, Lambsquarters", "setting": "[8]; [17]", "result": 0}, {"measurement": "Plant response rating, Lambsquarters", "setting": "[8]; [18]", "result": 0}, {"measurement": "Lambsquarters plant response rating", "setting": "[8]; [19]", "result": 100}, {"measurement": "Plant response rating, Lambsquarters", "setting": "[8]; [20]", "result": 100}, {"measurement": "Plant response rating, Lambsquarters", "setting": "[8]; [21]", "result": 100}, {"measurement": "Lambsquarters plant response rating", "setting": "[8]; [22]", "result": 100}, {"measurement": "Bromegrass, Downy plant response rating", "setting": "[9]; [15]", "result": 10}, {"measurement": "Bromegrass, Downy plant response rating", "setting": "[9]; [16]", "result": 55}, {"measurement": "Plant response rating, Bromegrass, Downy", "setting": "[9]; [17]", "result": 75}, {"measurement": "Plant response rating, Bromegrass, Downy", "setting": "[9]; [18]", "result": 85}, {"measurement": "Bromegrass, Downy plant response rating", "setting": "[9]; [19]", "result": 0}, {"measurement": "Plant response rating, Bromegrass, Downy", "setting": "[9]; [20]", "result": 20}, {"measurement": "Plant response rating, Bromegrass, Downy", "setting": "[9]; [21]", "result": 30}, {"measurement": "Bromegrass, Downy plant response rating", "setting": "[9]; [22]", "result": 0}, {"measurement": "Blackgrass plant response rating", "setting": "[10]; [15]", "result": 70}, {"measurement": "Blackgrass plant response rating", "setting": "[10]; [16]", "result": 95}, {"measurement": "Plant response rating, Blackgrass", "setting": "[10]; [17]", "result": 95}, {"measurement": "Plant response rating, Blackgrass", "setting": "[10]; [18]", "result": 100}, {"measurement": "Blackgrass plant response rating", "setting": "[10]; [19]", "result": 0}, {"measurement": "Plant response rating, Blackgrass", "setting": "[10]; [20]", "result": 80}, {"measurement": "Plant response rating, Blackgrass", "setting": "[10]; [21]", "result": 98}, {"measurement": "Blackgrass plant response rating", "setting": "[10]; [22]", "result": 30}, {"measurement": "Goosegrass plant response rating", "setting": "[11]; [15]", "result": 0}, {"measurement": "Goosegrass plant response rating", "setting": "[11]; [16]", "result": 45}, {"measurement": "Plant response rating, Goosegrass", "setting": "[11]; [17]", "result": 55}, {"measurement": "Plant response rating, Goosegrass", "setting": "[11]; [18]", "result": 60}, {"measurement": "Goosegrass plant response rating", "setting": "[11]; [19]", "result": 55}, {"measurement": "Plant response rating, Goosegrass", "setting": "[11]; [20]", "result": 95}, {"measurement": "Plant response rating, Goosegrass", "setting": "[11]; [21]", "result": 100}, {"measurement": "Goosegrass plant response rating", "setting": "[11]; [22]", "result": 80}, {"measurement": "Pigweed plant response rating", "setting": "[12]; [15]", "result": 0}, {"measurement": "Pigweed plant response rating", "setting": "[12]; [16]", "result": 0}, {"measurement": "Plant response rating, Pigweed", "setting": "[12]; [17]", "result": 0}, {"measurement": "Plant response rating, Pigweed", "setting": "[12]; [18]", "result": 20}, {"measurement": "Pigweed plant response rating", "setting": "[12]; [19]", "result": 0}, {"measurement": "Plant response rating, Pigweed", "setting": "[12]; [20]", "result": 0}, {"measurement": "Plant response rating, Pigweed", "setting": "[12]; [21]", "result": 0}, {"measurement": "Pigweed plant response rating", "setting": "[12]; [22]", "result": 0}, {"measurement": "Morningglory plant response rating", "setting": "[13]; [15]", "result": 0}, {"measurement": "Morningglory plant response rating", "setting": "[13]; [16]", "result": 0}, {"measurement": "Plant response rating, Morningglory", "setting": "[13]; [17]", "result": 0}, {"measurement": "Plant response rating, Morningglory", "setting": "[13]; [18]", "result": 0}, {"measurement": "Morningglory plant response rating", "setting": "[13]; [19]", "result": 0}, {"measurement": "Plant response rating, Morningglory", "setting": "[13]; [20]", "result": 0}, {"measurement": "Plant response rating, Morningglory", "setting": "[13]; [21]", "result": 0}, {"measurement": "Morningglory plant response rating", "setting": "[13]; [22]", "result": 0}, {"measurement": "Ragweed plant response rating", "setting": "[14]; [15]", "result": 0}, {"measurement": "Ragweed plant response rating", "setting": "[14]; [16]", "result": 0}, {"measurement": "Plant response rating, Ragweed", "setting": "[14]; [17]", "result": 0}, {"measurement": "Plant response rating, Ragweed", "setting": "[14]; [18]", "result": 0}, {"measurement": "Ragweed plant response rating", "setting": "[14]; [19]", "result": 0}, {"measurement": "Plant response rating, Ragweed", "setting": "[14]; [20]", "result": 0}, {"measurement": "Plant response rating, Ragweed", "setting": "[14]; [21]", "result": 0}, {"measurement": "Ragweed plant response rating", "setting": "[14]; [22]", "result": 0}]}
